The values that follow come from publication PMC6199744, “Development of Chemical Proteomics for the Folateome and Analysis of the Kinetoplastid Folateome” (ACS Infectious Diseases, 2018).

Structures are written as SMILES. Like-named read-outs stand apart in the source and are kept apart here.

Holding throughout (assay type): binding
Assay [1] deals with T1, HeLa cell extract proteins (Homo sapiens, UniProt P35637).
T1 construct: endogenous in cells; host or cells: HeLa cell extract
T1 sequence (P35637 1-526): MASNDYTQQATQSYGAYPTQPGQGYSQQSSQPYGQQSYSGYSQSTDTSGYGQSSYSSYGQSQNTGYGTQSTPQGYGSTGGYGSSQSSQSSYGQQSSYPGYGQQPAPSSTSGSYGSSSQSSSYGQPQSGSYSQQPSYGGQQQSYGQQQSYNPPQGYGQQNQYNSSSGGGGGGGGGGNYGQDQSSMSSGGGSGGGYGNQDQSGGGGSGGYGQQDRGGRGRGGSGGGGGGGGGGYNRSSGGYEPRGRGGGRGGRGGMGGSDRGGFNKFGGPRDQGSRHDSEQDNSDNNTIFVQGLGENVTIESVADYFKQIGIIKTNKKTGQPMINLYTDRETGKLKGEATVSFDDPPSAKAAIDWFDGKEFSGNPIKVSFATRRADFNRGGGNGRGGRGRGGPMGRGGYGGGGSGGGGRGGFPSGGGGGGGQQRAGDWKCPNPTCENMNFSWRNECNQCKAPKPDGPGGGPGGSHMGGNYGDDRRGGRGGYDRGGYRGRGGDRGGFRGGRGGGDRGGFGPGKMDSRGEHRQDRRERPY

Assay [2] deals with T2, HeLa cell extract proteins (Homo sapiens, UniProt P24534).
T2 construct: endogenous in cells; host or cells: HeLa cell extract
T2 sequence (P24534 1-225): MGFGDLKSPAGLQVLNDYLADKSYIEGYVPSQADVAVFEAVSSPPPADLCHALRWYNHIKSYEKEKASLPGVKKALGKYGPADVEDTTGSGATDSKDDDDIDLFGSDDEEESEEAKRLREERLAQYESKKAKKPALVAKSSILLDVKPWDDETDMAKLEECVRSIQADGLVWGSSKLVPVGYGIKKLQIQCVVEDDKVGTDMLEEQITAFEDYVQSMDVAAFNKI

For assay [3], the target named is T3, HeLa cell extract proteins (Homo sapiens, UniProt P60900).
T3 construct: endogenous in cells; host or cells: HeLa cell extract

In assay [4] the target is T4, HeLa cell extract proteins (Homo sapiens, UniProt P49189).
T4 construct: endogenous in cells; host or cells: HeLa cell extract

Assay [5] deals with T5, HeLa cell extract proteins (Homo sapiens, UniProt Q9Y3F4).
T5 construct: endogenous in cells; host or cells: HeLa cell extract
T5 sequence (Q9Y3F4 1-350): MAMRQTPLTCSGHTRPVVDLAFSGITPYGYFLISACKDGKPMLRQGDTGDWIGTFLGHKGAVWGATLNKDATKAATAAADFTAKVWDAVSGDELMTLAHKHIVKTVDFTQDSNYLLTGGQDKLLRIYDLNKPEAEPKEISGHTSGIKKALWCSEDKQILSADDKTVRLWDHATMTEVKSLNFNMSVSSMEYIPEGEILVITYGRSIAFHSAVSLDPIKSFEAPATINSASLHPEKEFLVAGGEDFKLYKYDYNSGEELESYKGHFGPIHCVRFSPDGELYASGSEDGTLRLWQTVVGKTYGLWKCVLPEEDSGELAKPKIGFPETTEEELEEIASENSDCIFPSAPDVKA

For assay [6], the target named is T6, HeLa cell extract proteins (Homo sapiens, UniProt Q8NEZ5).
T6 construct: endogenous in cells; host or cells: HeLa cell extract
T6 sequence (Q8NEZ5 1-403): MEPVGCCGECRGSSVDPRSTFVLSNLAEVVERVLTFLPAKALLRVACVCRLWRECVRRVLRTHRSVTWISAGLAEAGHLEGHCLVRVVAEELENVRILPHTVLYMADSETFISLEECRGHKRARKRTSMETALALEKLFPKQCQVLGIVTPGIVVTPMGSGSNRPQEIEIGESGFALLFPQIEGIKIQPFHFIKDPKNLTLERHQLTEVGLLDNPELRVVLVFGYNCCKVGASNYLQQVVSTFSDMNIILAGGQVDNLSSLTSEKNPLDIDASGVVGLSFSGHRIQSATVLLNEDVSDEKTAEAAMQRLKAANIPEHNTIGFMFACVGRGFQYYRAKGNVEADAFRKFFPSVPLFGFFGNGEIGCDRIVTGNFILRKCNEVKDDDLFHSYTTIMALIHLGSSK

Assay [7] addresses T7, HeLa cell extract proteins (Homo sapiens, UniProt P56192).
T7 construct: endogenous in cells; host or cells: HeLa cell extract
T7 sequence (P56192 1-900): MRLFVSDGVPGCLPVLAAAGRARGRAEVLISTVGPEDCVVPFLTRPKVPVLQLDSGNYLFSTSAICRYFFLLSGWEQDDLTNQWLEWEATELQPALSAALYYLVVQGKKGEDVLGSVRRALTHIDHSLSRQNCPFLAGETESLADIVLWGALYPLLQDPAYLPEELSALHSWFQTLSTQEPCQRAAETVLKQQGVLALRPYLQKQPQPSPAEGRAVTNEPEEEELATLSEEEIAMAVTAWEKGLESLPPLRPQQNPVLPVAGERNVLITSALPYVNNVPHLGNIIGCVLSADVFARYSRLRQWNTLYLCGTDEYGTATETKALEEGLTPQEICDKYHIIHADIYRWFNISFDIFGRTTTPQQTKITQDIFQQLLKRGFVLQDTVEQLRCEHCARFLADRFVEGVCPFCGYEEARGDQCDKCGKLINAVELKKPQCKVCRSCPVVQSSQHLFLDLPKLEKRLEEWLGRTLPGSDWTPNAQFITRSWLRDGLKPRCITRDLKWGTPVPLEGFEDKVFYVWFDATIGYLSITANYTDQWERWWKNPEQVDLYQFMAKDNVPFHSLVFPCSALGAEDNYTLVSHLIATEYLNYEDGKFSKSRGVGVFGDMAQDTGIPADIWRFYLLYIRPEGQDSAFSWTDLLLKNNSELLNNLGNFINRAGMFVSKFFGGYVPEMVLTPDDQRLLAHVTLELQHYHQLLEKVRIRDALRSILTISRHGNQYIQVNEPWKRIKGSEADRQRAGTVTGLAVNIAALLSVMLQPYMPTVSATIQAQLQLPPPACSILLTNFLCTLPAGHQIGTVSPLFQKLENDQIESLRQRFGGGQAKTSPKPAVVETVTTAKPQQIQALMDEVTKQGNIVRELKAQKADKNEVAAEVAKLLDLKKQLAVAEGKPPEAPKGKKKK

Setting [8] is: HeLa, protein FUS (FUS-LIKE PROTEIN (FRAGMENT)).

T4 sequence (P49189 whole entry): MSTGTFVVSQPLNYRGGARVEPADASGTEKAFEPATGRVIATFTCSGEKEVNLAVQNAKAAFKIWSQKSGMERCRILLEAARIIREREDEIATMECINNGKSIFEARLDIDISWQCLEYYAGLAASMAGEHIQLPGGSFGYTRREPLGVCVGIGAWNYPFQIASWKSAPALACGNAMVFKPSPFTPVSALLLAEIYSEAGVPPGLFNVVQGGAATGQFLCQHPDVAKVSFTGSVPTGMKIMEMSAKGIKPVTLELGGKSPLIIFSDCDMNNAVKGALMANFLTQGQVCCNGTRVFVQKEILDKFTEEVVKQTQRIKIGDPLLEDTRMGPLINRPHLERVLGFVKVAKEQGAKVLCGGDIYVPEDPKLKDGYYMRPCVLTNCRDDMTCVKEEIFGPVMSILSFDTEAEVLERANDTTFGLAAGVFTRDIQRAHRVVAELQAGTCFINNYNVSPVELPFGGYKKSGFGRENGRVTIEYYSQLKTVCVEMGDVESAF
T3 sequence (P60900 whole entry): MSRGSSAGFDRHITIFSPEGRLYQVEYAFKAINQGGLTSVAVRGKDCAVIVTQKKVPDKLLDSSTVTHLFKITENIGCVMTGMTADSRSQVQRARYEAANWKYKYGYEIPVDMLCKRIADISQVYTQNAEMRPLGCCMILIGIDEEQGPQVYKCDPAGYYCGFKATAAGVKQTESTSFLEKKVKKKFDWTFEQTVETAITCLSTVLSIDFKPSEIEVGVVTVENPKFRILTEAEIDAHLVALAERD

For the compound `Nc1nc2cccc(-c3ccccc3)c2n1Cc1ccc(Cl)c(Cl)c1` [compound 3], the “fold changes relative to vehicle control” value in assay [1] (protein FUS, HeLa) was found to be 1.02; in assay [2] (protein EEF1B2, HeLa), 1.02; in assay [3] (protein PSMA6, HeLa), 1.02; in assay [4] (protein ALDH9A1, HeLa), 1.08; in assay [5] (protein STRAP, HeLa), 1.11; in assay [6] (captured protein FBXO22, HeLa), 0.96. For the same compound, the “fold changes relative to vehicle control” value in assay [7] (captured protein MARS, HeLa) turned out to be 0.93.
Turning to `NCCOCCOCC(=O)Nc1nc2ncc(CNc3ccc(C(=O)NC(CCC(=O)O)C(=O)O)cc3)nc2c(=O)[nH]1` (stereo not shown) [compound 6], the “fold changes relative to vehicle control” value in assay [1] (setting [8]) stood at 1.09; in assay [2] (protein EEF1B2, HeLa), 1.07; in assay [3] (HeLa, protein PSMA6) it was 1; in assay [4] (HeLa, captured protein ALDH9A1) it was 0.92; in assay [5] (protein STRAP, HeLa), 1.08; in assay [6] (HeLa, protein FBXO22), 0.82. Besides, in assay [7] (HeLa, captured protein MARS), the “fold changes relative to vehicle control” value was determined as 1.01.
As to `Nc1nc2[nH]cc(CCc3ccc(C(=O)N[C@@H](CCC(=O)O)C(=O)O)cc3)c2c(=O)[nH]1` [PTX, pemetrexed], the “fold changes relative to vehicle control” value in assay [1] is recorded as 1.03; in assay [2] it was 1; in assay [3] it was 1; in assay [4], 1.02; in assay [5] it was 1; in assay [6] it was 1. Besides, in assay [7], the “fold changes relative to vehicle control” value was 0.93.
For `Nc1nc2c(c(=O)[nH]1)N(C=O)C(CNc1ccc(C(=O)N[C@@H](CCC(=O)O)C(=O)O)cc1)CN2` (stereo partly shown) [LEU, leucovorin], the “fold changes relative to vehicle control” value in assay [1] (setting [8]) is on record as 1.06; in assay [2] (protein EEF1B2, HeLa), 0.84; in assay [3] (HeLa, protein PSMA6) it was 1.02; in assay [4] (HeLa, captured protein ALDH9A1), 0.9; in assay [5] (protein STRAP, HeLa), 0.85; in assay [6] (HeLa, protein FBXO22), 1. In addition, the “fold changes relative to vehicle control” value in assay [7] (HeLa, captured protein MARS) turned out to be 0.92.
For the compound `CCCCCCOc1ccc(Cc2cnc(N)nc2N)cc1` [compound 1], the “fold changes relative to vehicle control” value was 1.05 in assay [1] (protein FUS, HeLa); 1.03 in assay [2] (protein EEF1B2, HeLa); 1.1 in assay [3] (protein PSMA6, HeLa); 1 in assay [4] (protein ALDH9A1, HeLa); 1.07 in assay [5] (protein STRAP, HeLa); 0.89 in assay [6] (captured protein FBXO22, HeLa). The “fold changes relative to vehicle control” value in assay [7] (captured protein MARS, HeLa) was 0.74.
Take `NCCCNc1ccc(C(=O)NC(CCC(=O)O)C(=O)O)cc1` (stereo not shown) [compound 7]: the “fold changes relative to vehicle control” value is listed as 1.25 in assay [1] (setting [8]); 0.87 in assay [2] (protein EEF1B2, HeLa); 1 in assay [3] (HeLa, protein PSMA6); 0.98 in assay [4] (HeLa, captured protein ALDH9A1); 0.86 in assay [5] (protein STRAP, HeLa); 0.98 in assay [6] (HeLa, protein FBXO22). The “fold changes relative to vehicle control” value in assay [7] (HeLa, captured protein MARS) stood at 0.94.
In the case of `CCCCCCOc1cccc(Cc2cnc(N)nc2N)c1` [compound 2], the “fold changes relative to vehicle control” value in assay [1] (protein FUS, HeLa) stood at 1.21; in assay [2] (protein EEF1B2, HeLa) it was 1.63; in assay [3] (protein PSMA6, HeLa), 1.27; in assay [4] (protein ALDH9A1, HeLa) it was 1.01; in assay [5] (protein STRAP, HeLa) it was 1.28; in assay [6] (captured protein FBXO22, HeLa) it was 1.02. In addition, the “fold changes relative to vehicle control” value in assay [7] (captured protein MARS, HeLa) is given as 1.07.
